SMILES strings stand for the structures. Substitutions are numbered along the chain they refer to. Where a SMILES comes first, the peptide text is derived from it.

Assay [1] addresses T1, hTAS1R2 + hTAS1R3 Y699L^4.60 (Homo sapiens, UniProt Q7RTX0+Q8TE23, Y699L).
T1 construct: expressed in transfected cells; host or cells: HEK293T cells stably expressing G16Gust44
T1 sequence (Q7RTX0 21-852 Y699L): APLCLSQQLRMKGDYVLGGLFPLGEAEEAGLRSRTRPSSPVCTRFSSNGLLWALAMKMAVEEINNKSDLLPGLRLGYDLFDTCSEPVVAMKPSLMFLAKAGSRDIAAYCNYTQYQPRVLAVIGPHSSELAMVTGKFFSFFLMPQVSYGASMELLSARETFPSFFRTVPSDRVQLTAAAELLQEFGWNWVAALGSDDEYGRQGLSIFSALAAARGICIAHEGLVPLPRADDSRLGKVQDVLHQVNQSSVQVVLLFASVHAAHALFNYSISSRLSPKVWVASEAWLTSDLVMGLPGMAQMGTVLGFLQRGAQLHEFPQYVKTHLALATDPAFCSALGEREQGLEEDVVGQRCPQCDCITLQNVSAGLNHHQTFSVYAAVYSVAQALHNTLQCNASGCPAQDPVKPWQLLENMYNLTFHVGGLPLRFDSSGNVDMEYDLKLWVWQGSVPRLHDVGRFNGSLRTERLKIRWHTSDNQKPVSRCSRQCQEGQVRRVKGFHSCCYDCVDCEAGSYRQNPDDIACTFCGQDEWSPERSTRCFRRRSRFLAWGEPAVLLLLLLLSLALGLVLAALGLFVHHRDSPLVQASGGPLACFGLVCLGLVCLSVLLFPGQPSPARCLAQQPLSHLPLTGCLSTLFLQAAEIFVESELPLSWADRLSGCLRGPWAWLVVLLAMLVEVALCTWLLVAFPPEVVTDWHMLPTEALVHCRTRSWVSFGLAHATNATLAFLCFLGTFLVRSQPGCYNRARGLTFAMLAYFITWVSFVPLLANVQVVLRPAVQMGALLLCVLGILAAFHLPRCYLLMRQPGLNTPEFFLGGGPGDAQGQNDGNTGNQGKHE
T1 sequence (Q8TE23 20-839): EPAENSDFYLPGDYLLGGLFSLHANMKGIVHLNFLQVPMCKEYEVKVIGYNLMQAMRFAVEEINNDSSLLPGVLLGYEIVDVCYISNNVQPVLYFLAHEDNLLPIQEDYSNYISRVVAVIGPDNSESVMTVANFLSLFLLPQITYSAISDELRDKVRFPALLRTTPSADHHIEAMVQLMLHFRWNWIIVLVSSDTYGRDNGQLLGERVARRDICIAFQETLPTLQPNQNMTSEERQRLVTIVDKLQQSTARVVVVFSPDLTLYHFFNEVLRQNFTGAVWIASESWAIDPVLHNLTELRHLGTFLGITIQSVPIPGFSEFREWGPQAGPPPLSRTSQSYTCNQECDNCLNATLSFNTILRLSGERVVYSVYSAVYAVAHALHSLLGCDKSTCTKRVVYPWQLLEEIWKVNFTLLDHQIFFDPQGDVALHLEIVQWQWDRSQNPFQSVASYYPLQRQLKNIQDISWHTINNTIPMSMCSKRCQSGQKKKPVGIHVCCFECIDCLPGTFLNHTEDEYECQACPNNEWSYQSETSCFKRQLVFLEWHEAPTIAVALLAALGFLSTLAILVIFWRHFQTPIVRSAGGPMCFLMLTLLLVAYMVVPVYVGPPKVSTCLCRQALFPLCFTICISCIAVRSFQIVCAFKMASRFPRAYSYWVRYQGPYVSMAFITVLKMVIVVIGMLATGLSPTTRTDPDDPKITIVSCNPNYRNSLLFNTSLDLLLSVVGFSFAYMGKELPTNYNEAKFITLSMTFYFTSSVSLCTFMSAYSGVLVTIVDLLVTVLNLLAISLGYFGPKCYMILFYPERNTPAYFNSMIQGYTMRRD
Briefly: Calcium response (FLIPR), hTAS1R3 mutant coexpressed with hTAS1R2. Type of assay: cell-based. The following applies: variant Y699L^4.60; for Emax: read-out: maximal signal (% of wt). In short, it runs like this:
(§1)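 HEK293T cells stably expressing chimeric G16Gust44 were transiently transfected with C-terminally HSV-tagged hTAS1R2 and mutant hTAS1R3, then loaded 24 h later with Fluo4-AM for 1 h. Calcium mobilization after sweet-tastant application was read by FLIPR, mock-corrected and expressed as ΔF/F.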

Assay [2] has as its target T2, hTAS1R2 + hTAS1R3 F730L^5.43 (Homo sapiens, UniProt Q7RTX0+Q8TE23, F730L).
T2 construct: expressed in transfected cells; host or cells: HEK293T cells stably expressing G16Gust44
T2 sequence (Q8TE23 20-839): T1 sequence (Q8TE23 20-839)
T2 sequence (Q7RTX0 21-852 F730L): T1 sequence (Q7RTX0 21-852 Y699L) with L679Y, F710L
Described as above. The format is cell-based. The following applies: variant F730L^5.43; for Emax: read-out: maximal signal (% of wt). In short, it runs like this:
as §1

As for `COc1ccc(CCC(=O)c2c(O)cc(O[C@@H]3O[C@H](CO)[C@@H](O)[C@H](O)[C@H]3O[C@@H]3O[C@@H](C)[C@H](O)[C@@H](O)[C@H]3O)cc2O)cc1O` [NHDC, neohesperidin dihydrochalcone], the concentration for a half-maximal effect (EC50) (commonly the concentration needed to bring the measured effect to its halfway point) in assay [1] was found to be 0.7 ± 0.1 mM; in assay [2] it was 0.9 ± 0.1 mM. The Emax in assay [1] came to 83 ± 40%; in assay [2], 70 ± 18%.
In the case of `COC(=O)[C@H](Cc1ccccc1)NC(=O)[C@@H](N)CC(=O)O` [aspartame] (HELM PEPTIDE1{D.F.[CO[*:1]]}$$$$V2.0), in assay [1], the half-maximal effective concentration (EC50) was 1.6 ± 0.4 mM and the Emax was determined as 78 ± 9%. In assay [2], the EC50 is 1.7 ± 0.4 mM and the Emax worked out at 87 ± 27%.
